{
  "source": "PubChem BioAssay AID1259407",
  "about": "(Chemical Carcinogenesis Research Information System (CCRIS), 2018)",
  "system": "CCRIS mutagenicity, Ames/micronucleus/aberration tests",
  "test": "CCRIS mutagenicity studies",
  "note": "Active and inactive are the calls of the source. The rule behind the calls is not given here.",
  "data": [
    {"smiles": "COc1cc(CNC(=O)CCCC/C=C/C(C)C)ccc1O", "values": [
      {"measurement": "mutagenic call", "setting": "End Point: IN VITRO CHROMOSOMAL ABERRATIONS, Test System: HUMAN LYMPHOCYTES, Metabolic Activation: NONE", "value": "inactive; negative"},
      {"measurement": "mutagenic call", "setting": "End Point: IN VITRO CHROMOSOMAL ABERRATIONS, Test System: HUMAN LYMPHOCYTES, Metabolic Activation: RAT LIVER S-9, AROCLOR 1254", "value": "inactive; negative"},
      {"measurement": "mutagenic call", "setting": "End Point: IN VITRO CHROMOSOMAL ABERRATIONS, Test System: HUMAN LYMPHOCYTES, Metabolic Activation: S-9", "value": "inactive; negative"},
      {"measurement": "mutagenic call", "setting": "End Point: IN VITRO CHROMOSOMAL ABERRATIONS, Test System: HUMAN PERIPHERAL BLOOD LYMPHOCYTES, Metabolic Activation: NONE", "value": "inactive; negative"},
      {"measurement": "mutagenic call", "setting": "End Point: IN VITRO CHROMOSOMAL ABERRATIONS, Test System: HUMAN PERIPHERAL BLOOD LYMPHOCYTES, Metabolic Activation: RAT, LIVER, S-9, AROCLOR 1254", "value": "inactive; negative"},
      {"measurement": "mutagenic call", "setting": "End Point: IN VIVO MICRONUCLEUS, Test System: BONE MARROW ERYTHROCYTES, Species: MOUSE, Strain/Sex: CD-1/FEMALE, Route: GAVAGE", "value": "inactive; negative"},
      {"measurement": "mutagenic call", "setting": "End Point: IN VIVO MICRONUCLEUS, Test System: BONE MARROW ERYTHROCYTES, Species: MOUSE, Strain/Sex: CD-1/MALE, Route: GAVAGE", "value": "inactive; negative"},
      {"measurement": "mutagenic call", "setting": "End Point: IN VIVO MICRONUCLEUS, Test System: BONE MARROW POLYCHROMATIC ERYTHROCYTES, Species: MOUSE, Strain/Sex: CD-1/MALE, FEMALE, Route: GAVAGE", "value": "inactive; negative"},
      {"measurement": "mutagenic call", "setting": "Test System: AMES SALMONELLA TYPHIMURIUM, Strain/Indicator: TA97, Metabolic Activation: NONE, Method: PREINCUBATION (20 MIN)", "value": "inactive; negative"},
      {"measurement": "mutagenic call", "setting": "Test System: AMES SALMONELLA TYPHIMURIUM, Strain/Indicator: TA97, Metabolic Activation: S-9, Method: PREINCUBATION (20 MIN)", "value": "inactive; negative"},
      {"measurement": "mutagenic call", "setting": "Test System: AMES SALMONELLA TYPHIMURIUM, Strain/Indicator: TA98, Metabolic Activation: HAMSTER, LIVER, S-9, AROCLOR 1254, Method: STANDARD PLATE", "value": "inactive; negative"},
      {"measurement": "mutagenic call", "setting": "Test System: AMES SALMONELLA TYPHIMURIUM, Strain/Indicator: TA98, Metabolic Activation: NONE, Method: DIRECT PLATE", "value": "inactive; negative"},
      {"measurement": "mutagenic call", "setting": "Test System: AMES SALMONELLA TYPHIMURIUM, Strain/Indicator: TA98, Metabolic Activation: NONE, Method: PREINCUBATION", "value": "inactive; negative"},
      {"measurement": "mutagenic call", "setting": "Test System: AMES SALMONELLA TYPHIMURIUM, Strain/Indicator: TA98, Metabolic Activation: NONE, Method: PREINCUBATION (20 MIN)", "value": "inactive; negative"},
      {"measurement": "mutagenic call", "setting": "Test System: AMES SALMONELLA TYPHIMURIUM, Strain/Indicator: TA98, Metabolic Activation: RAT LIVER S-9, AROCLOR 1254, Method: PREINCUBATION", "value": "inactive; negative"},
      {"measurement": "mutagenic call", "setting": "Test System: AMES SALMONELLA TYPHIMURIUM, Strain/Indicator: TA98, Metabolic Activation: RAT LIVER S-9, AROCLOR 1254, Method: STANDARD PLATE", "value": "inactive; negative"},
      {"measurement": "mutagenic call", "setting": "Test System: AMES SALMONELLA TYPHIMURIUM, Strain/Indicator: TA98, Metabolic Activation: RAT, LIVER, S-9, AROCLOR 1254, Method: DIRECT PLATE", "value": "inactive; negative"},
      {"measurement": "mutagenic call", "setting": "Test System: AMES SALMONELLA TYPHIMURIUM, Strain/Indicator: TA98, Metabolic Activation: RAT, LIVER, S-9, AROCLOR 1254, Method: PREINCUBATION", "value": "inactive; negative"},
      {"measurement": "mutagenic call", "setting": "Test System: AMES SALMONELLA TYPHIMURIUM, Strain/Indicator: TA98, Metabolic Activation: RAT, LIVER, S-9, AROCLOR, Method: STANDARD PLATE", "value": "active; positive"},
      {"measurement": "mutagenic call", "setting": "Test System: AMES SALMONELLA TYPHIMURIUM, Strain/Indicator: TA98, Metabolic Activation: S-9, Method: PREINCUBATION (20 MIN)", "value": "inactive; negative"},
      {"measurement": "mutagenic call", "setting": "Test System: AMES SALMONELLA TYPHIMURIUM, Strain/Indicator: TA100, Metabolic Activation: HAMSTER, LIVER, S-9, AROCLOR 1254, Method: STANDARD PLATE", "value": "inactive; negative"},
      {"measurement": "mutagenic call", "setting": "Test System: AMES SALMONELLA TYPHIMURIUM, Strain/Indicator: TA100, Metabolic Activation: NONE, Method: DIRECT PLATE", "value": "inactive; negative"},
      {"measurement": "mutagenic call", "setting": "Test System: AMES SALMONELLA TYPHIMURIUM, Strain/Indicator: TA100, Metabolic Activation: NONE, Method: PREINCUBATION", "value": "inactive; negative"},
      {"measurement": "mutagenic call", "setting": "Test System: AMES SALMONELLA TYPHIMURIUM, Strain/Indicator: TA100, Metabolic Activation: NONE, Method: STANDARD PLATE", "value": "inactive; negative"},
      {"measurement": "mutagenic call", "setting": "Test System: AMES SALMONELLA TYPHIMURIUM, Strain/Indicator: TA100, Metabolic Activation: RAT LIVER S-9, AROCLOR 1254, Method: PREINCUBATION", "value": "inactive; negative"},
      {"measurement": "mutagenic call", "setting": "Test System: AMES SALMONELLA TYPHIMURIUM, Strain/Indicator: TA100, Metabolic Activation: RAT LIVER S-9, AROCLOR 1254, Method: STANDARD PLATE", "value": "inactive; negative"},
      {"measurement": "mutagenic call", "setting": "Test System: AMES SALMONELLA TYPHIMURIUM, Strain/Indicator: TA100, Metabolic Activation: RAT, LIVER, S-9, AROCLOR 1254, Method: DIRECT PLATE", "value": "inactive; negative"},
      {"measurement": "mutagenic call", "setting": "Test System: AMES SALMONELLA TYPHIMURIUM, Strain/Indicator: TA100, Metabolic Activation: RAT, LIVER, S-9, AROCLOR 1254, Method: PREINCUBATION", "value": "inactive; negative"},
      {"measurement": "mutagenic call", "setting": "Test System: AMES SALMONELLA TYPHIMURIUM, Strain/Indicator: TA100, Metabolic Activation: S-9 (0.25 ML), Method: PREINCUBATION (20 MIN)", "value": "inactive; negative"},
      {"measurement": "mutagenic call", "setting": "Test System: AMES SALMONELLA TYPHIMURIUM, Strain/Indicator: TA100, Metabolic Activation: S-9 (0.5 ML), Method: PREINCUBATION (60 MIN)", "value": "inactive; negative"},
      {"measurement": "mutagenic call", "setting": "Test System: AMES SALMONELLA TYPHIMURIUM, Strain/Indicator: TA1535, Metabolic Activation: HAMSTER, LIVER, S-9, AROCLOR 1254, Method: STANDARD PLATE", "value": "inactive; negative"}
    ]}
  ]
}
